Measurements taken from patent US10653651B2, “Kit for treating cancer with low molecular weight components of aurin tricarboxylic acid complex” (Aurin Biotech Inc., priority 2014, dated 2020).
Read-outs that look alike come from different tables or passages of the source.

How the values were obtained:
U251 cells = assay: Lactic dehydrogenase release from U251 cells; type: cell-based, human; conditions: n=4, read-out: IC50, lactate dehydrogenase release from U251 cells
Method: (§1) Experiment 4 was designed to confirm apoptotic cell death of U251 cells induced by ATA, AQA, AHA, and ATAC by measuring release of lactic dehydrogenase into the cell medium. For serum lactate dehydrogenase determination, reaction supernatants ([…]) were pipetted into the wells of 96-well plates, followed by the addition of […] lactate solution (36 mg/mL in PBS) and […] INT (iodonitrotetrazolium chloride, 2-(4-iodophenyl)-3-(4-nitrophenyl)-5-phenyl-2H-tetrazolium chloride) solution (2 mg/mL in PBS). The enzymatic reaction was started by addition of […] of NAD^+/diaphorase solution (3 mg/mL NAD^+; 2.3 mg solid/mL diaphorase). After 1 h, optical densities were measured with a microplate reader using a 490 nm filter. The amount of LDH released was expressed as a percentage of the value obtained in comparative cells where cells were 100% lysed by 1% Triton X-100.

BxPC-3 cells = assay: Lactic dehydrogenase release from BxPC-3 cells; type: cell-based, human; conditions: n=4, read-out: IC50, lactate dehydrogenase release from BxPC-3 cells
Method: as §1
(§2) Experiment 8 was designed to confirm apoptotic cell death of BxPC-3 cells induced by ATA, AQA, AHA, and ATAC by the release of lactic dehydrogenase into the cell medium.

[1] = tested on: A549 human lung cancer cell line; assay: A549 cell growth in zymosan-activated human serum (MTT cell viability); type: cell-based; conditions: A549 cells, 15% human serum, n=4, read-out: IC50, inhibition of A549 cell growth induced by zymosan-activated human serum complement
Method: (§3) Experiment 1 was designed to determine the effect of ATA, AHA, AQA and ATAC on U251 cell growth in the presence of complement activated human serum. In Experiment 1(a), U251 cells were treated with various concentrations of human serum (1, 5, 7.5, 10, 12.5, 15%) in DMEM and incubated with 1 μg/mL zymosan at 37° C. for 72 h. Control U251 cells (CON) were incubated in fresh DMEM only. As a further control U251 cells were treated with 10% human serum heated at 56° C. for 30 min to heat inactivate complement (HIS) before incubation with 1 μg/ml zymosan. In Experiment 1(b), U251 cells were treated with various concentrations of ATAC, ATA, AQA and AHA (0.1, 1, 5, 10, 30, 50 μM) in DMEM with 15% human serum and incubated with 1 μg/mL zymosan at 37 ° C. for 72 h. In both Experiments 1(a) and 1(b), following incubation, cell viability was evaluated by MTT (3-[4,5-dimethylthiazol-2-yl]-2,5 diphenyl tetrazolium bromide) assays by adding MTT to the cell cultures to reach a final concentration of 1 mg/mL. Following a 1 h incubation at 37° C., the dark crystals formed were dissolved by adding a SDS/DMF extraction buffer (300 μL, 20% sodium dodecyl sulfate, 50% N,N-dimethylformamide, pH 4.7). Plates were subsequently incubated overnight at 37° C. and optical densities at 570 nm were measured by transferring 100 μL aliquots to 96-well plates and using a plate reader with a corresponding filter.
Experiment 5 was designed to determine the effect of ATA, AHA, AQA and ATAC on BxPC-3 cell growth in the presence of complement activated human serum.
Experiment 9 was designed to determine the effect of ATA, AQA, AHA and ATAC on A549 cell growth. The protocol was identical to that used in Experiment 5(b) except A549 cells were used.

A549 cells = assay: Lactic dehydrogenase release from A549 cells; type: cell-based, human; conditions: n=4, read-out: IC50, lactate dehydrogenase release from A549 cells
Method: as §1, §2
Experiment 12 was designed to confirm apoptotic cell death of A549 cells induced by ATA, AQA, AHA, and ATAC by the release of lactic dehydrogenase into the cell medium. The protocol was identical to that used in Experiment 8 except A549 cells were used.

[2] = tested on: BT 474 human breast cancer cell line; assay: BT 474 cell growth in zymosan-activated human serum (MTT cell viability); type: cell-based; conditions: BT 474 cells, 15% human serum, n=4, read-out: IC50, inhibition of BT 474 cell growth induced by zymosan-activated human serum complement
Method: as §3
Experiment 13 was designed to determine the effect of ATA, AQA, AHA and ATAC on BT 474 cell growth. The protocol was identical to that used in Experiment 1(b) except BT 474 cells were used.

[3] = tested on: DOHH2 human B-cell carcinoma cell line; assay: DOHH2 cell growth in zymosan-activated human serum (MTT cell viability); type: cell-based; conditions: 15% human serum, n=4, read-out: IC50, inhibition of DOHH2 cell growth induced by zymosan-activated human serum complement
Method: as §3
Experiment 15 was designed to determine the effect of ATA, AQA, 15 AHA and ATAC on DOHH2 human B-cell carcinoma cell growth. The protocol was identical to that used in Experiment 9(b) except DOHH2 human B-cell carcinoma cells were used.

[4] = tested on: K562 human chronic myelogenous leukemia cell line; assay: K562 cell growth in zymosan-activated human serum (MTT cell viability); type: cell-based
Method: as §3
Experiment 17 was designed to determine the effect of ATA, AQA, AHA and ATAC on K562 human chronic myelogenous leukemia cell growth. The protocol was identical to that used in Experiment 15(b) except that K562 human chronic myelogenous were utilized and the growth medium was Iscove's.

[5] = tested on: colorectal adenocarcinoma LS180 cells; assay: Lactic dehydrogenase release from LS180 cells; type: cell-based, human; conditions: n=4, read-out: IC50, lactate dehydrogenase release from LS180 cells
Method: as §1
Experiment 20 was designed to determine if apoptotic death of colorectal adenocarcinoma LS180 cells was induced by ATA, AQA, AHA, and ATAC as determined by the release of lactic dehydrogenase into the cell medium. The protocol was identical to that used in Experiment 18(b) except that colorectal adenocarcinoma cells were used.

[6] = tested on: human carcinoma SW 480 cells; assay: Lactic dehydrogenase release from SW 480 cells; type: cell-based; conditions: n=4, read-out: IC50, lactate dehydrogenase release from SW 480 cells
Method: as §1
Experiment 23 was designed to determine the effect of ATA, AQA, 15 AHA and ATAC on growth of the human colorectal cancer cell line SW 480. The protocol was identical to that used in Experiment 15(b) except that human colorectal cancer SW480 cells were utilized. Experiment 24 was designed to determine if apoptotic death of human carcinoma SW 480 cells was induced by ATA, AQA, AHA, and ATAC as determined by the release of lactic dehydrogenase into the cell medium. The protocol was identical to that used in Experiment 15(d) except that human carcinoma SW480 cells were used and the growth medium was DMEM.

[7] = K562 cells, Iscove's medium, 15% human serum, zymosan, MTT, n=4, read-out: IC50, inhibition of K562 cell growth induced by zymosan-activated human serum complement

| Compound | IC50 (U251 cells; Homo sapiens, U-251, LDH as % of Triton X-100 lysis) [µM] | IC50 (BxPC-3 cells; Homo sapiens) [µM] | IC50 [1] [µM] | IC50 (A549 cells; Homo sapiens) [µM] | IC50 [2] [µM] | IC50 ([3]; DOHH-2, DOHH2 cells) [µM] | IC50 ([4]; Homo sapiens, K562, read-out: IC50, inhibition of K562 cell growth induced by zymosan-activated human serum complement) [µM] | IC50 ([5]; Homo sapiens) [µM] | IC50 ([6]; Homo sapiens, SW480, DMEM) [µM] | IC50 (U251 cells; LDH as % of Triton X-100 lysis) [µM] | IC50 (BxPC-3 cells) [µM] | IC50 (A549 cells) [µM] | IC50 ([3]; DOHH2 cells) [µM] | IC50 [4, 7] [µM] | IC50 [5] [µM] | IC50 ([6]; DMEM) [µM] |
| --- | --- | --- | --- | --- | --- | --- | --- | --- | --- | --- | --- | --- | --- | --- | --- | --- |
| O=C(O)C1=CC(=C(c2ccc(O)c(C(=O)O)c2)c2ccc(O)c(C(=O)O)c2)C=CC1=O [ATA, aurin tricarboxylic acid] | 7.6 | 7.9 | 7.2 | 7.5 | 5.9 | 5.1 | 4.5 | 4.9 | 4.7 |  |  |  |  |  |  |  |
| aurin hexacarboxylic acid [AHA] |  |  | 7.5 |  | 5.8 |  |  |  |  | 7.7 | 8.1 | 7.6 | 4.9 | 4.6 | 5 | 4.9 |
| aurin quadracarboxylic acid [AQA] |  |  | 7.4 |  | 6 |  |  |  |  | 7.4 | 8 | 7.4 | 5 | 4.7 | 5.1 | 4.6 |
